# According to paper PMC12389022, “Drug Metabolism and Pharmacokinetic Evaluation of a Novel RNase H2 Inhibitor for the Treatment of Triple-Negative Breast Cancer” (Pharmaceutics, 2025):
# Like-named read-outs stand apart in the source and are kept apart here.
# What was measured:
# Caco-2 cell monolayer = test: R14 permeability in the Caco-2 cell culture model; type: in vitro ADME; settings: R14 10 µM
# Experimental: (§1) The permeability of R14 was assessed using the Caco-2 cell monolayer model, following the protocol by Liu and Hu (Liu 2002). Caco-2 cells (2.5 × 10^5 cells per insert; 4.2 cm^2 area, 3 μm pore size) were seeded and cultured at 37 °C with 90% humidity and 5% CO2 for 19–22 days. Monolayer integrity was evaluated using transepithelial electrical resistance (TEER) measurements with a Millicell ERS-2 system. Only monolayers with TEER values between 500 and 750 Ω·cm^2 were used.
# (§2) Hank’s Balanced Salt Solution (HBSS), supplemented with NaHCO3 (0.35 g/L), HEPES (5.96 g/L), and glucose (3.5 g/L), adjusted to the desired pH, was used as the transport medium. Cells from passages 41–49 were used.
# (§3) After confirming TEER, R14 working solution (10 µM) was added to either the apical or basolateral side of the insert, designating that side as the donor compartment, while the opposite side served as the receiver compartment. Samples (200 µL) were collected from both the apical (A) and basolateral (B) sides at 0, 0.5, 1, 2, and 4 h. The removed volume was immediately replaced with either fresh R14 working solution (on the donor side) or fresh buffer (on the receiver side) to maintain consistent volume and drug concentration throughout the experiment.
# (§4) For analysis, 100 µL of acetonitrile containing 0.6% formic acid and internal standard was added to each collected sample. After vortexing and centrifugation, the supernatant was analyzed using UHPLC-MS/MS for R14 quantification.
# (§5) The apparent permeability coefficient (P, cm/s) was calculated using the following equation: P=dQ/dt/A·C0 where dQ/dt is the permeability rate of drug appearance in the receiver compartment (µmol/s), A is the surface area of the cell monolayer (cm^2), and C0 is the initial concentration in the donor compartment (µmol/mL).
# (§6) Permeability was assessed in both directions (apical to basolateral and basolateral to apical), and the efflux ratio was calculated as: Effluxratio=Pb−a/Pa−b where Pa−b is the permeability coefficient from apical to basolateral, and Pb−a is the permeability coefficient from basolateral to apical.
# [1] = R14 permeability in the Caco-2 cell culture model; type: in vitro ADME; settings: human, Caco-2, R14 10 µM
# Experimental: as §1, §2, §3, §4, §5, §6
# MDA-MB-231 tumor = system: MDA-MB-231 tumor; set-up: method as in PMID 42013846; settings: oral R14 vs vehicle controls; cited from earlier work
# [2] = set-up: method as in PMID 36924633; settings: mouse whole blood stored at −70 °C; cited from earlier work
# [3] = Pharmacokinetics of R14 in rats after i.v. and oral dose; type: in vivo, Sprague Dawley rats; settings: for AUC(0-t): read-out: AUC0→10h
# Experimental: This study was carried out in accordance with the recommendation of the Guidelines for the Care and Use of Laboratory Animals (2011) and was in compliance with the ARRIVE guidelines. All animal experiments were conducted with prior approval from the Texas Southern University Institutional Animal Care and Use Committee (IACUC). Male adult SD rats (250–350 g) were purchased from Envigo RMS (Indianapolis, IN, USA) and were housed in standard rodent cages (3–4 rats per cage) with a 12 h light/dark cycle at 22–24 °C and had free access to standard laboratory rodent chow (7012 Teklad mouse/rat diet from Envego, Inc., Indianapolis, IN, USA) and water. Rats were acclimated to the animal care facility for at least 7 days before the start of each experiment. Only male rats were used in the present study to minimize pharmacokinetic variations due to sex differences.
# To facilitate the timed withdrawal of multiple blood samples from each animal, the right jugular vein of each animal was cannulated one day prior to drug administration. The cannulas were flushed daily with 0.5 mL of sterile heparinized saline (100 units/mL). Under anesthesia using a cocktail of ketamine/acetopromazine/xylazine (50:3.3:3.3 mg/kg ip), silicone elastomer tubing (0.02 × 0.037 in) was inserted into the jugular vein, secured with a silk suture, and exteriorized in the dorsal intrascapular area. The surgical incision was prophylactically treated with nitrofurazone wound powder and closed with surgical staples.
# (§7) For the oral pharmacokinetics of R14, rats were fasted overnight and 4 h post-administration of 50 mg/kg oral dose of R14, with free access to water in metabolic cages. Serial blood samples (0.15 mL each) were collected from the cannulated jugular vein into heparin-coating tubes before dosing and at 5 min, 15 min, 30 min, 45 min, 1 h, 2 h, 3 h, 4 h, 6 h, 8 h, 10 h, and 24 h time points post dose. Plasma samples were separated immediately by centrifugation of the blood samples at 13,000 rpm for 3 min. For R14 quantification, 10 μL plasma aliquots were mixed with 30 μL of a stabilizing derivatization solution (0.1 M citric acid and 0.1 M sodium sulfite) and stored at −80 °C for analysis by UHPLC-MS/MS. For metabolite identification, 20 μL plasma aliquots were mixed with 80 μL acetonitrile containing 0.5% formic acid and stored at −80 °C for UHPLC-QTOF MS/MS analysis. Urine samples were collected over 0–24 h and stored at −80 °C.
# For the intravenous (i.v.) pharmacokinetics of R14, another group of jugular vein cannulated rats received an i.v. administered 5 mg/kg R14 dose. Serial blood samples (0.15 mL each) were collected from the cannulated jugular vein into heparin-coating tubes before dosing and at 2 min, 5 min, 10 min, 30 min, 45 min, 1 h, 2 h, 4 h, 6 h, 8 h, 10 h, and 24 h time points post-dose. Plasma was processed similarly, with aliquots prepared for both R14 quantification and metabolite analysis, and urine collected over 24 h and stored at −80 °C.
# The urine sample (10 μL each) was pre-mixed with 30 µL of derivatization agent (also acting as stabilizing agent). Pre-mixed plasma samples (with the derivation agent before storage) or the pre-mixed urine samples were added to 360 µL of acetonitrile (containing 2.5 ng/mL warfarin), vortexed for 2 min, and then centrifuged for 20 min. The supernatant (80 μL) was mixed with 160 µL of acetonitrile containing 0.5% formic acid, and finally, 100 μL aliquot of the mixture was transferred to a sample vial for UHPLC-MS/MS analysis.
# R14 quantification via monitoring R14 bisulfite was conducted using a previously published method on a 6500+ Triple Quad UHPLC-MS/MS System (SCIEX, Framingham, MA, USA) coupled with a Synergi Fusion-RP column (50 × 2 mm, 4 µm, 80 Å, Phenomenex Inc., Torrance, CA, USA). […]
# [4] = Metabolite identification and relative exposure in rat plasma and urine (UHPLC-QTOF MS/MS); type: in vivo, Sprague Dawley rats; settings: for Cumulative excretion in 24 h urine as fraction of total amount of R14 and its metabolites: rat urine 0-24 h, peak area x urine volume; for Source P (detected in plasma): rat plasma after single oral dose of 50 mg/kg R14; for Source U (detected in urine): rat urine 0-24 h after single oral dose of 50 mg/kg R14
# Experimental: as §7
# Twenty microliters of urine were mixed with 80 µL of methanol containing 0.5% formic acid, vortexed for 2 min, and centrifuged for 20 min. An 80 µL Aliquot of the supernatant was transferred to a sample vial for metabolite identification using UHPLC-QTOF MS/MS.
# Samples from in vivo pharmacokinetic studies, in vitro blood stability studies, and in vitro hepatic microsome studies were pretreated at the time of collection. Before analysis, the samples were thawed at room temperature, vortexed for 2 min, and centrifuged at 14,000 rpm for 20 min. An 80 µL aliquot of the supernatant was transferred to a sample vial for UHPLC-QTOF MS/MS analysis.
# Metabolite identification was performed on a UHPLC-X500B QTOF MS/MS (SCIEX, Framingham, MA, USA) equipped with a Synergi Fusion-RP column (4 µm, 150 × 2 mm, 80 Å, Phenomenex, Torrance, CA, USA). The mobile phases were water with 0.1% formic acid (A) and methanol with 0.1% formic acid (B), delivered at a flow rate of 0.4 mL/min. The autosampler and oven temperatures were set at 10 °C and 30 °C, respectively. The running time was 30 min. The gradient elution was as follows: 10% B for 0.5 min; increased to 70% over 20 min; then to 95% over 2 min; held at 95% for 5 min; returned to 10% in 0.5 min; and equilibrated for 2 min.
# The QTOF MS/MS was operated In positive ion mode. Data were acquired in Information-dependent-acquisition (IDA) mode, starting with a TOF MS survey scan to detect precursor ions, followed by MS/MS scans of the top 10 most intense ions (intensity > 200 counts/s). TOF MS was set to scan m/z 200–700 with a 0.1 s accumulation time, while TOF MS/MS scanned m/z 50–700 with a 0.04 s accumulation time. The source temperature and spray voltage were set at 500 °C, and 5000 v, respectively. Curtain gas and collision gas (CAD) were set at 30 and 9 psi, while nebulizer gas (gas 1) and heater gas (gas 2) were set at 55 and 60 psi, respectively. The declustering potential (DP) was 50 V. Collision energy (CE) were 10 v for TOF MS and 35 v (±15 v spread) for TOF MS/MS. Data were acquired using SCIEX OS software 1.6.1, and processed on SCIEX OS software 3.1.0.
# To elucidate the metabolic pathways and identify unknown metabolites of R14, we employed a multi-step strategy. First, MS/MS fragmentation analysis was performed to characterize the fragmentation pattern of R14 and identify its key fragment ions, which served as references for metabolite identification. Next, based on the chemical structure of R14, potential biotransformation pathways mediated by hepatic cytochrome P450 enzymes were predicted. These predicted metabolites were then screened in urine samples collected during in vivo pharmacokinetic studies to identify excreted metabolites. Metabolites detected in urine were subsequently cross-verified in plasma samples from the same in vivo studies. If verification failed or additional metabolites were suspected, the analysis reverted to the initial fragmentation step to identify downstream or daughter metabolites. […]
# [5] = cited from earlier work
# [6] = R14 incubation in rat whole blood; type: in vitro ADME; settings: R14 10 µg/mL, room temperature, 3 days
# Experimental: Previously, we observed the complete disappearance of R14 from mouse whole blood samples after being stored for 10 days in a −70 °C freezer, raising concerns about its stability under typical storage conditions. To further investigate the degradation and potential metabolic transformation of R14 in whole blood, we spiked rat whole blood with R14 (10 µg/mL) and left it at room temperature for 3 days. Room temperature incubation allows for ongoing enzymatic and non-enzymatic processes, providing insight into R14’s metabolic stability and degradation pathways under physiologically relevant but uncontrolled conditions. After incubation, a 4X volume of methanol containing 0.5% formic acid was added to the samples, followed by vortexing for 3 min and centrifugation to obtain supernatant prior to metabolite identification using the UHPLC coupled with quadrupole time-of-flight tandem mass spectrometry (UHPLC-QTOF MS/MS).
# Samples from in vivo pharmacokinetic studies, in vitro blood stability studies, and in vitro hepatic microsome studies were pretreated at the time of collection. Before analysis, the samples were thawed at room temperature, vortexed for 2 min, and centrifuged at 14,000 rpm for 20 min. An 80 µL aliquot of the supernatant was transferred to a sample vial for UHPLC-QTOF MS/MS analysis. […]
# [7] = male, Sprague Dawley, iv, i.v. 5 mg/kg, rat plasma, n = 3, mean ± SD
# [8] = male, Sprague Dawley, rat, plasma, iv, i.v. 5 mg/kg, rats, n = 3, mean ± SD
# [9] = male, Sprague Dawley, rat, plasma, oral 50 mg/kg, rats, n = 3, mean ± SD
# [10] = male, Sprague Dawley, oral 50 mg/kg, rat plasma, n = 3, mean ± SD
smiles,measurement,setting,value
"Cc1ccccc1-n1sc2cc(F)ccc2c1=O [Metabolite R14, 6-Fluoro-2-(2-methylphenyl)-1,2-benzothiazol-3(2H)-one]",Permeability assessment,Caco-2 cell monolayer,moderate permeability
same,"Papp A→B at 4 h, 10 µM","[1]; n = 3, read-out: Pa−b (apical-to-basolateral permeability)",6.39 ± 0.6 ×10⁻⁶ cm/s
same,"Papp B→A at 4 h, 10 µM","[1]; n = 3, read-out: Pb−a (basolateral-to-apical permeability)",6.41 ± 1.15 ×10⁻⁶ cm/s
same,"efflux ratio at 4 h, 10 µM",[1]; read-out: Efflux ratio (Pb−a/Pa−b),1.12
same,Survival,MDA-MB-231 tumor,improved survival
same,Tumor size,MDA-MB-231 tumor,significantly reduced
same,Time to complete disappearance from whole blood samples,[2],≤ 10 days
same,AUC(0-inf),[3]; [7],1810 ± 444 ng·h/mL
same,AUC(0-t),[3]; [7],1580 ± 477 ng·h/mL
same,MRT,[3]; [8],1.63 ± 0.39 h
same,half-life,[3]; [8],5.39 ± 0.94 h
same,clearance,"[3]; male, Sprague Dawley, rat, plasma, iv, i.v. 5 mg/kg, rats, n = 3, mean ± SD, read-out: CL (systemic clearance) (converted)",43.8 mL/min/kg
same,Vd,"[3]; male, Sprague Dawley, rat, plasma, iv, i.v. 5 mg/kg, rats, n = 3, mean ± SD, read-out: Vd (volume of distribution)",20.7 ± 6.11 L/kg
same,bioavailability,"[3]; male, Sprague Dawley, rat, plasma, oral, 50 mg/kg, oral 50 mg/kg vs i.v. 5 mg/kg, rats, read-out: F% (absolute oral bioavailability)",13.4%
same,MRT,[3]; [9],2.82 ± 0.5 h
same,half-life,[3]; [9],2.99 ± 1.41 h
same,CL/F,"[3]; male, Sprague Dawley, rat, plasma, oral 50 mg/kg, rats, n = 3, mean ± SD, read-out: CL/F (apparent clearance) (converted)",367 mL/min/kg
same,Vd/F,"[3]; male, Sprague Dawley, rat, plasma, oral 50 mg/kg, rats, n = 3, mean ± SD, read-out: Vd/F (apparent volume of distribution)",93.3 ± 38.1 L/kg
same,Tmax,"[3]; male, Sprague Dawley, oral 50 mg/kg, rat plasma, n = 3",0.5 h
same,AUC(0-inf),[3]; [10],2430 ± 344 ng·h/mL
same,Cmax,[3]; [10],1150 ± 201 ng/mL
same,AUC(0-t),[3]; [10],2080 ± 255 ng·h/mL
same,F% (absolute oral bioavailability),"[3]; oral 50 mg/kg vs i.v. 5 mg/kg, rats",13.38%
same,Cumulative excretion in 24 h urine as fraction of total amount of R14 and its metabolites,[4],Less than 1%
same,Solubility in DMSO,[5]; DMSO,25 mg/mL
same,Water solubility,[5]; water,poorly water soluble
Cc1ccccc1N1Sc2cc(F)ccc2C1OC1OC(C(=O)O)C(O)C(O)C1O (stereo not drawn) [Metabolite M4],Source P (detected in plasma),[4],√
same,Apparent AUC in plasma relative to total AUC of R14 and all identified metabolites,"[4]; rat plasma, peak area as relative concentration",22.3%
same,Cumulative excretion in 24 h urine as fraction of total amount of R14 and its metabolites,[4],48.4%
same,Source U (detected in urine),[4],√
Cc1ccccc1N1Sc2cc(F)ccc2C1O (stereo not drawn) [Metabolite M1],Source B (detected in whole blood incubation),[6],sole major metabolic product and √
same,Source P (detected in plasma),[4]; 50 mg/kg,low concentrations and relatively low levels and √
same,Source U (detected in urine),[4],undetectable
